This is an account of results in paper PMC9935382, “Sorting nexin-dependent therapeutic targeting of oncogenic epidermal growth factor receptor” (Cancer Gene Therapy, 2022).

This experiment relates to mammary fat pad and tumors of WAP-TGFα mice. Description: Histopathology (H+E) of WAP-TGFα mouse tissues. The format is in vivo. The following applies: for Tumor pathology: tumor site in value. An excerpt: The transgenic mouse line WAP-TGFα (The Jackson Laboratory; Tg(WapTgfa)215Bri) were back crossed to C57BL/6 J background (N8). WAP-TGFα heterozygous males were bred with C57BL/6 J females to generate study animals and offspring were genotyped using primers against the WAP-TGFα transgene. WAP-TGFα heterozygous females were housed continuously with C57Bl/6 J males to induce pregnancy, resulting in transgene expression. […] To ensure randomized treatment arms we added mice to alternating treatment arms as they developed tumors, starting with the control cPTD4 arm. When a second mouse from the same litter developed a tumor, that animal was added to the opposite arm from its litter mate. The researchers were not blinded to the treatment arms. […] Once entered, mice were weighed, tumors measured, and injections given intravenously at 10 μg/g body weight 3x/week for 4 weeks. […] Upon sacrifice, all tumors were collected and fixed in 10% formalin; a portion of each tumor was homogenized in tissue lysis buffer to form tissue protein lysates. Tissues were paraffin-embedded and sectioned by the Tissue Acquisition and Cell Molecular Analysis Shared Resource at the University of Arizona Cancer Center. The University of Arizona IACUC committee performs oversite of animal experimental protocols with coordination from a veterinarian in compliance with AAALAC.
Mice were bred continuously to induce transgene expression and palpated weekly for tumor formation. […] A Changes in tumor size from entry into study until end of study are shown for each individual tumor, (*) indicate tumors that entered the study at size greater than 500 mm^3, all other tumors entered the study at ~100 mm^3. B a Kaplan-Meier survival curve was generated showing when mice were sacrificed by either reaching tumor burden (2000 mm^3) or the end of the study (p = 0.0002). C Upon sacrifice tumors were harvested and fixed in 10% formalin and embedded in paraffin. FFPE blocks were sectioned at […] and stained with hematoxylin and eosin and imaged at 20x. D Protein lysates were generated from tumors upon the sacrifice and probed for the indicated proteins.
Supplementary Figure 3. Upon sacrifice, tissues were harvested and fixed in 10% formalin. Tissues were embedded, sectioned, and stained with H+E by the Tissue Acquisition and Cell Molecular Analysis Shared Resource (TACMASR) at the University of Arizona Cancer Center. H+E slides were then sent to the UC Davis pathology lab for pathological analysis.

Entries after “also recorded” stand apart in the source; their conditions may differ.

Take `CC[C@H](C)[C@H](NC(=O)[C@@H](NC(=O)[C@H](Cc1c[nH]cn1)NC(=O)[C@H](CC(N)=O)NC(=O)[C@H](CCCCN)NC(=O)[C@H](C)NC(=O)[C@H](CCCNC(=N)N)NC(=O)[C@H](C)NC(=O)[C@H](CCC(N)=O)NC(=O)[C@H](CCCNC(=N)N)NC(=O)[C@H](C)NC(=O)[C@H](C)NC(=O)[C@H](C)NC(=O)[C@H](CCCNC(=N)N)NC(=O)[C@H](C)NC(=O)[C@H](Cc1ccc(O)cc1)NC(C)=O)C(C)C)C(=O)N[C@@H](CCCCN)C(=O)N[C@@H](Cc1ccc(O)cc1)C(=O)N[C@@H](CC(C)C)C(=O)N[C@@H](CCC(=O)O)C(=O)N[C@H](C(=O)N[C@@H](CC(C)C)C(=O)N[C@@H](CC(C)C)C(=O)N[C@@H](Cc1ccc(O)cc1)C(=O)N[C@@H](CO)C(=O)N[C@@H](CCC(N)=O)C(=O)N[C@@H](CCC(N)=O)C(=O)N[C@@H](CCC(N)=O)C(=O)N[C@@H](CC(C)C)C(=O)N[C@@H](C)C(=O)N[C@@H](CCCCN)C(=O)N[C@@H](Cc1ccc(O)cc1)C(=O)N[C@@H](Cc1c[nH]c2ccccc12)C(=O)N[C@@H](CCC(=O)O)C(=O)N[C@@H](C)C(=O)N[C@@H](Cc1ccccc1)C(=O)N[C@@H](CC(C)C)C(N)=O)[C@@H](C)O` [cSNX1.3]: the “Fat Pad pathology” value by setting is: (mouse 6.13.7 (cSNX1.3)) “Mammary adenomatous to lobular (atypical) hyperplasia; In situ mammary adenocarcinoma”; (mouse 6.4.L (cSNX1.3)) “Mammary adenomatous to lobular (atypical) hyperplasia; In situ mammary adenocarcinoma; Focal granulomatous mastitis”; (mouse 6.9.LR (cSNX1.3)) “Mammary adenomatous to lobular (atypical) hyperplasia; In situ mammary adenocarcinoma”; (mouse 7.1.9 (cSNX1.3)) “Mammary adenomatous to lobular (atypical) hyperplasia; In situ cystic (small) mammary adenocarcinoma”. In addition, the Tumor pathology entry (mouse 6.13.7 (cSNX1.3)) is recorded as “(R2) Mammary adenocarcinoma (cystic)”, the Tumor pathology result (mouse 6.4.L (cSNX1.3)) is given as “(L4) Mammary adenomatous to lobular (atypical) hyperplasia; Adenoma; In situ mammary adenocarcinoma; also recorded: (R4) Mammary adenomatous to lobular (atypical) hyperplasia; Cystic ectasia”, the Tumor pathology result (mouse 6.9.LR (cSNX1.3)) is “(L4) Mixed malignant tumor (fibrous component)” and the Tumor pathology entry (mouse 7.1.9 (cSNX1.3)) was “(L4) Mammary adenomatous to lobular (atypical) hyperplasia; also recorded: (R4) Mammary adenocarcinoma”.
